From US8853420B2, “Compounds” (Boehringer Ingelheim International GmbH, priority 2008, dated 2014)

biological target: T1, Xenopus laevis Aurora B/INCENP complex (Xenopus laevis, UniProt Q6DE08); assay: Aurora-B kinase assay (radioactive enzyme inhibition assay); type: biochemical; conditions: test substance at 1 μM; percentage of the positive control (maximum value without test substance)
T1 construct: equipped at the N-terminal position with a GST tag (amino acids 60-361); GST (N, cleaved yes); made in house; host or cells: E. coli BL21 (DE3)
Text: Example Aurora-B Kinase Assay
A radioactive enzyme inhibition assay was developed using E. coli-expressed recombinant Xenopus laevis Aurora B wild-type protein equipped at the N-terminal position with a GST tag (amino acids 60-361) in a complex with Xenopus laevis INCENP (amino acids 790-847), which is obtained from bacteria and purified. In equivalent manner a Xenopus laevis Aurora B mutant (G96V) in a complex with Xenopus laevis INCENP^790-847 may also be used.
Expression and Purification
The coding sequence for Aurora-B^60-361 from Xenopus laevis is cloned into a modified version of pGEX-6T (Amersham Biotech) via BamHI and SalI cutting sites. The vector contains two cloning cassettes which are separated by a ribosomal binding site, allowing bi-cistronic expression. In this configuration Xenopus laevis Aurora B is expressed by the first cassette, and the Xenopus laevis INCENP^790-847 is expressed by the second cassette. The resulting vector is pAUB-IN^847.
First of all the E. coli strain BL21 (DE3) is co-transformed with pUBS520 helper plasmid and pAUB-IN^847, after which protein expression is induced using 0.3 mM IPTG at an OD600 of 0.45-0.7. The expression is then continued for approx. 12-16 h at 23-25° C. with agitation.
The bacteria are then removed by centrifuging and the pellet is lysed in lysis buffer (50 mM Tris/Cl pH 7.6, 300 mM NaCl, 1 mM DTT, 1 mM EDTA, 5% glycerol, Roche Complete Protease Inhibitor tablets) using ultrasound, using 20-30 mL lysis buffer per liter of E. coli culture. The lysed material is freed from debris by centrifugation (12000 rpm, 45-60 min, JA20 rotor). The supernatant is incubated with 300 μL of equilibrated GST Sepharose Fast Flow (Amersham Biosciences) per liter of E. coli culture for 4-5 h at 4° C. Then the column material is washed with 30 volumes of lysis buffer and then equilibrated with 30 volumes of cleavage buffer (50 mM Tris/Cl pH 7.6, 150 mM NaCl, 1 mM DTT, 1 mM EDTA). To cleave the GST tag from Aurora B, 10 units of Prescission Protease (Amersham Biosciences) are used per milligram of substrate and the mixture is incubated for 16 h at 4° C. The supernatant which contains the cleavage product is loaded onto a 6 mL Resource Q column (Amersham Biosciences) equilibrated with ion exchange buffer (50 mM Tris/Cl pH 7.6, 150 mM NaCl, 1 mM DTT, 1 mM EDTA). The Aurora B/INCENP complex is caught as it flows through, then concentrated and loaded onto a Superdex 200 size exclusion chromatography (SEC) column equilibrated with SEC buffer (10 mM Tris/Cl pH 7.6, 150 mM NaCl, 1 mM DTT, 1 mM EDTA). Fractions which contain the AuroraB/INCENP complex are collected and concentrated using Vivaspin concentrators (molecular weight exclusion 3000-5000 Da) to a final concentration of 12 mg/mL. Aliquots (e.g. 240 ng/μL) for kinase assays are transferred from this stock solution into freezing buffer (50 mM Tris/Cl pH 8.0, 150 mM NaCl, 0.1 mM EDTA, 0.03% Brij-35, 10% glycerol, 1 mM DTT) and stored at −80° C.
Test substances are placed in a polypropylene dish (96 wells, Greiner #655 201), in order to cover a concentration frame of 10 μM-0.0001 μM. The final concentration of DMSO in the assay is 5%. 30 μL of protein mix (50 mM tris/Cl pH 7.5, 25 mM MgCl2, 25 mM NaCl, 167 μM ATP, 10 ng Xenopus laevis Aurora B/INCENP complex in freezing buffer) are pipetted into the 10 μl of test substance provided in 25% DMSO and this is incubated for 15 min at RT. Then 10 μL of peptide mix (100 mM tris/Cl pH 7.5, 50 mM MgCl2, 50 mM NaCl, 5 μM NaF, 5 μM DTT, 1 μCi gamma-P33-ATP [Amersham], 50 μM substrate peptide [biotin-[…] or multimers thereof, or biotin-[…] or multimers thereof, or biotin-[…]]) are added. The reaction is incubated for 75 min (ambient temperature) and stopped by the addition of 180 μL of 6.4% trichloroacetic acid and incubated for 20 min on ice. […]

T1 sequence (Q6DE08 60-361): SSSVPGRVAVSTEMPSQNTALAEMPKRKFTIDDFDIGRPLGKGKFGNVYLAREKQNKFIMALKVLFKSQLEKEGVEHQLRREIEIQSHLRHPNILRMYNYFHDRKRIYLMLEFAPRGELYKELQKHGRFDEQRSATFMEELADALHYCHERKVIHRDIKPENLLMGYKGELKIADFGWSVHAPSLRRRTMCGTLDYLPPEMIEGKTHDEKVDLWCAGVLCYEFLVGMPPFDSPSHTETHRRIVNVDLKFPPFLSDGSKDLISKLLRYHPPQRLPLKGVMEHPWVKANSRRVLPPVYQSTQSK
T1 sequence (O13024 790-847 partner limits assumed): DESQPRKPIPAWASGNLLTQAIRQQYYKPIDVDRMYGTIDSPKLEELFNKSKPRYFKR

remaining activity at 1 µM [%] | Compound
5.84 | CC(C)Nc1ccc(-c2ccc3c(c2)NC(=O)/C3=C(\Nc2ccc(C(=O)N3CCN(C4CC4)CC3)cc2)c2ccccc2)cn1 [Example 126]
4.67 | CC(C)Nc1ccc(-c2ccc3c(c2)NC(=O)/C3=C(\Nc2ccc(C(=O)N3CCC[C@H]3CN3CCCC3)cc2)c2ccccc2)cn1 [Example 127]
4.34 | CC(C)Nc1ccc(-c2ccc3c(c2)NC(=O)/C3=C(\Nc2ccc(C(=O)N3CCC(N(C)C)CC3)cc2)c2ccccc2)cn1 [Example 128]
4.55 | CC(C)Nc1ccc(-c2ccc3c(c2)NC(=O)/C3=C(\Nc2ccc(C(=O)N3CCN(C4CCOCC4)CC3)cc2)c2ccccc2)cn1 [Example 129]
1.43 | CC(C)Nc1ccc(-c2ccc3c(c2)NC(=O)/C3=C(\Nc2ccc(C(=O)N3CCC[C@@H]3CN3CCCC3)cc2)c2ccccc2)cn1 [Example 130]
5.48 | CC(C)Nc1ccc(-c2ccc3c(c2)NC(=O)/C3=C(\Nc2ccc(C(=O)N3C[C@H]4C[C@@H]3CN4C)cc2)c2ccccc2)cn1 [Example 131]
0.55 | CC(C)Nc1ccc(-c2ccc3c(c2)NC(=O)/C3=C(\Nc2ccc(C(=O)N3CCN[C@@H](C)C3)cc2)c2ccccc2)cn1 [Example 133]
1.43 | CC(C)Nc1ccc(-c2ccc3c(c2)NC(=O)/C3=C(\Nc2ccc(C(=O)NCCN(C)C)cc2)c2ccccc2)cn1 [Example 134]
0.77 | CC(C)Nc1ccc(-c2ccc3c(c2)NC(=O)/C3=C(\Nc2ccc(C(=O)N3CCN(C)CC3)cc2)c2ccccc2)cn1 [Example 135]
0.48 | CC(C)Nc1ccc(-c2ccc3c(c2)NC(=O)/C3=C(\Nc2ccc(C(=O)N3CC[C@H](N(C)C)C3)cc2)c2ccccc2)cn1 [Example 136]
0.67 | CC(C)Nc1ccc(-c2ccc3c(c2)NC(=O)/C3=C(\Nc2ccc(C(=O)N3CC[C@@H](N(C)C)C3)cc2)c2ccccc2)cn1 [Example 137]
0.68 | CC(C)Nc1ccc(-c2ccc3c(c2)NC(=O)/C3=C(\Nc2ccc(C(=O)N(C)CCN(C)C)cc2)c2ccccc2)cn1 [Example 138]
0.88 | CC(C)Nc1ccc(-c2ccc3c(c2)NC(=O)/C3=C(\Nc2ccc(C(=O)N(C)C3CCN(C)CC3)cc2)c2ccccc2)cn1 [Example 139]
2.26 | CC(C)Nc1ccc(-c2ccc3c(c2)NC(=O)/C3=C(\Nc2ccc(C(=O)NC3CCN(C)CC3)cc2)c2ccccc2)cn1 [Example 140]
1.89 | CNC(=O)C#Cc1cc2c(cc1S(=O)(=O)c1ccc(F)cc1)/C(=C(/Nc1ccc(CN(C)C)cc1)c1ccccc1)C(=O)N2 [Example 151]
4.33 | CCNC(=O)C#Cc1cc2c(cc1S(=O)(=O)N1CC(F)(F)C1)/C(=C(/Nc1ccc(N3CCN(C)CC3)cc1)c1ccccc1)C(=O)N2 [Example 152]
1.2 | CNCC#Cc1cc2c(cc1S(=O)(=O)N1CC(F)(F)C1)/C(=C(/Nc1ccccc1)c1ccccc1)C(=O)N2 [Example 153]
2.62 | CN1CCN(c2ccc(N/C(=C3\C(=O)Nc4cc(C#CC(=O)NC5CCC5)c(S(=O)(=O)N5CCC(F)(F)C5)cc43)c3ccccc3)cc2)CC1 [Example 154]
8.61 | CN(C)Cc1ccc(N/C(=C2\C(=O)Nc3cc(C#CC(=O)NC4CCC4)c(F)cc32)c2ccccc2)cc1 [Example 155]
3.02 | CC(C)NC(=O)C#Cc1cc2c(cc1S(=O)(=O)N1CC(F)(F)C1)/C(=C(/Nc1ccc(N3CCN(C)CC3)cc1)c1ccccc1)C(=O)N2 [Example 156]
1.98 | CNCC#Cc1cc2c(cc1S(=O)(=O)c1ccc(F)cc1)/C(=C(/Nc1ccccc1)c1ccccc1)C(=O)N2 [Example 157]

remaining activity at 1 µM [%] | Compound
7.53 | CNC(=O)C#Cc1cc2c(cc1F)/C(=C(/Nc1ccc(CN(C)C)cc1)c1ccccc1)C(=O)N2 [Example 158]
2.07 | CN(C)Cc1ccc(N/C(=C2\C(=O)Nc3cc(C#CC(=O)NC4CC4)ccc32)c2ccccc2)cc1 [Example 159]
1.39 | CCNC(=O)C#Cc1ccc2c(c1)NC(=O)/C2=C(\Nc1ccc(N2CCN(C)CC2)cc1)c1ccccc1 [Example 160]
1.69 | CN(C)Cc1ccc(N/C(=C2\C(=O)Nc3cc(C#CC(=O)Nc4ccccc4)ccc32)c2ccccc2)cc1 [Example 161]
1.65 | CCNC(=O)C#Cc1ccc2c(c1)NC(=O)/C2=C(\Nc1ccc(CN(C)C)cc1)c1ccccc1 [Example 162]
2.08 | CN(C)Cc1ccc(N/C(=C2\C(=O)Nc3cc(C#CC(=O)NC4CCCC4)ccc32)c2ccccc2)cc1 [Example 163]
3.17 | CN1CCN(c2ccc(N/C(=C3\C(=O)Nc4cc(C#CC(=O)NC5CCCC5)ccc43)c3ccccc3)cc2)CC1 [Example 164]
2.4 | CN(C)Cc1ccc(N/C(=C2\C(=O)Nc3cc(C#CC(=O)NC4CCC4)ccc32)c2ccccc2)cc1 [Example 165]
1.93 | CN(C)Cc1ccc(N/C(=C2\C(=O)Nc3cc(C#CC(=O)NCCO)ccc32)c2ccccc2)cc1 [Example 166]
2.96 | CN(C)Cc1ccc(N/C(=C2\C(=O)Nc3cc(C#CC(=O)NCC(F)F)ccc32)c2ccccc2)cc1 [Example 167]
1.85 | O=C(C#Cc1ccc2c(c1)NC(=O)/C2=C(\Nc1ccc(CN2CCCC2)cc1)c1ccccc1)NCC(F)F [Example 168]
1.71 | O=C(C#Cc1ccc2c(c1)NC(=O)/C2=C(\Nc1ccc(CN2CCCC2)cc1)c1ccccc1)NCCF [Example 169]
1.39 | O=C(C#Cc1ccc2c(c1)NC(=O)/C2=C(\Nc1ccc(CN2CCCC2)cc1)c1ccccc1)Nc1ccccc1F [Example 170]
3.39 | C[C@H](CO)NC(=O)C#Cc1ccc2c(c1)NC(=O)/C2=C(\Nc1ccc(CN(C)C)cc1)c1ccccc1 [Example 171]
3.21 | C[C@H](CO)NC(=O)C#Cc1ccc2c(c1)NC(=O)/C2=C(\Nc1ccc(CN2CCCC2)cc1)c1ccccc1 [Example 172]
3.68 | O=C(C#Cc1ccc2c(c1)NC(=O)/C2=C(\Nc1ccc(CN2CCCC2)cc1)c1ccccc1)Nc1cccc(Cl)c1 [Example 173]
2.67 | O=C(C#Cc1ccc2c(c1)NC(=O)/C2=C(\Nc1ccc(CN2CCCC2)cc1)c1ccccc1)Nc1ccccc1 [Example 174]
3.04 | CCNC(=O)C#Cc1ccc2c(c1)NC(=O)/C2=C(\Nc1ccc(CN2CCCC2)cc1)c1ccccc1 [Example 175]
1.65 | CCNC(=O)C#Cc1ccc2c(c1)NC(=O)/C2=C(\Nc1ccc(CN(C)C)c(F)c1)c1ccccc1 [Example 176]
1.83 | CCNC(=O)C#Cc1ccc2c(c1)NC(=O)/C2=C(\Nc1ccc(CN(C)C)c(Cl)c1)c1ccccc1 [Example 177]
